Experimental data published in patent US20220380430A1, “Non-Transgenic Functional Rescue of Neuropeptides” (Worcester Polytechnic Institute, priority 2021, published 2022).
No end group written: not given here.

How the values were obtained:
[1] = tested on: ins-6 lof worms; assay: NaCl chemotaxis assay after rescue-by-feeding; format: in vivo, C. elegans; conditions: ins-6 mutants; 750 mM NaCl
Procedure: All animals were maintained on bacterial lawns of OP50 E. coli, at 20° C., on NGM agar plates until the start of experiments. Mutant or control animals were transferred onto lawns of DH5α E. coli expressing either scramble peptide or the rescue peptide-of-interest on NGM plates containing […] AMP and 1 mM IPTG. Animals were reared on the peptide-expressing lawns for at least 48 hours at 20° C. before assaying for rescue of mutant phenotype at the appropriate developmental stage.
A salt chemotaxis assay was performed as previously described in Leinwand, S. G. & Chalasani, S. H. Nature neuroscience 16, 1461-1467 (2013); Bargmann, C. I. & Horvitz, H. R. Neuron 7, 729-742 (1991) to test the functionality of ins-6 after rescue-by-feeding. Wild-type (N2) and ins-6 worms were fed either scramble or INS-6 peptide passing 4-6 L4 larval onto an NGM plate containing […] AMP and 1 mM IPTG with 75 μL of peptide OD600=1.0. These worms were grown at 20° C. for about 4 days until the progeny of the initial L4 worms were young adults.
The day prior to testing, a thin, 10 mL layer of agar was added to 10 cm petri dishes to generate a 10 cm Chemotaxis Plates (5 mM KPO4 (pH 6.0), 1 μM MgSO4, 1 μM CaCl2), 20 g/L agar, and 8 g/L Difco Nutrient Broth). To prepare the “high salt” plates, 750 mM NaCl was added prior to plate pouring. The high salt plate were stored at 4° C. for up to one month, while the Chemotaxis Plates were made one day prior to testing. To create the high and low salt plugs, the back end of a Pasteur pipette was used to punch a 5 mm plug out of each plate. These 2 plugs were placed on opposite edges of the plate. A 10 mm radius was be drawn around the location of the plugs (FIG. 1). Plates were stored, lightly covered, overnight at room temperature (˜20° C., <40% humidity). […]
Young adult hermaphrodites are tested in the Chemotaxis Assay with no more than three replicates per day, over a minimum of three days, with 100-200 worms/assay plate. The […] Chemotaxis Index (CI) was calculated as follows: […]

[2] = tested on: flp-3 lof males; assay: Drop avoidance assay to ascr #8 after FLP-3 peptide rescue-by-feeding; format: in vivo, C. elegans; conditions: flp-3 lof males raised on peptide; 1 μM ascr #8; in words
Procedure: To identify which FLP-3 peptides are required for male avoidance of ascr #8, a peptide feeding approach https://www.nature.com/articles/s42003-021-02547-7-ref-CR59 was adopted, similar to RNAi feeding (FIG. 16A). Using Gateway Cloning technology, FLP-3 peptide coding sequences were inserted into a bacterial expression vector. As a control, first the FLP-3 peptides were tested that are still encoded in the ok3625 allele which are insufficient to drive the proper ascr #8 response in vivo: FLP-3-1 (SPLGTMRFamide) (SEQ ID NO: 10) and FLP-3-4 (NPLGTMRFamide) (SEQ ID NO: 11). Then flp-3 lof animals were reared on lawns of bacteria expressing the rescue constructs, and their progeny were assayed for avoidance (FIG. 16B-FIG. 16D).
Assays were performed as described previously in Chute, C. D. & Srinivasan, J. Semin. Cell Dev. Biol. 33, 18-24 (2014); Chute, C. D. et al. Nat. Commun. 10, 3186 (2019); and Hilliard, M. A. et al., EMBO J. 23, 1101-1111 (2004). Fifty to sixty L4 worms were segregated by sex and stored at 20° C. for 5 h to overnight to be assayed as young adults. One to four hours prior to the assay, the lids of unseeded plates were tilted to allow any excess moisture to evaporate off the plates. At the time of the assay, 10 or more animals were transferred onto each of the dried, unseeded plates. A drop of either water or 1 μM ascr #8 was placed on the tail of forward moving animals, and their response was scored as either an avoidance response, or no response. The total number of avoidances was divided by the total number of drops to generate an avoidance index for that plate. This was repeated for at least 10 plates over at least three different days.
SCRAMBLE control or FLP-3 peptide constructs were grown overnight in LB media containing […] ampicillin at 37° C. and diluted to an OD600 of 1.0 prior to seeding on NGM plates containing […] ampicillin and 1 mM IPTG. The 75 μL lawn was left to dry and grow overnight at room temperature before three L4 animals were placed on the plates. Males were selected for testing in the same manner as described above but were isolated onto plates also seeded with the same peptide on which they had been reared. Animals were then assayed using either the avoidance assay or single worm assay.

Q: What does the source list for “NSKLHRGGGRSRTSGSTGSMASHARGSPGLQ-NH2 [SCRAMBLE, scramble control peptide expressed in E. coli DH5α, negative control, reference compound]”?
A: Chemotaxis Index [1]: less than 0.4; rescue of avoidance phenotype to ascr #8 (Avoidance Index) [2]: does not affect behavior
